≈ marks a conversion by molar mass, not a printed value. Like-named read-outs stand apart in the source and are kept apart here. Marks after values point to notes of the source that are not given here.
Assays:
B. cereus ATCC 13061 = test: MIC determination; assay type: cell-based; conditions: Bacillus cereus, ATCC13061
Description: (§1) The ESKAPE organisms (E. faecium NCTC (ATCC 19734), S. aureus ATCC 29213, K. pneumonia ATCC 700603, A. baumannii ATCC 17961, P. aeruginosa ATCC 17853, E. aerogenes ATCC 35029) and E. coli ATCC 25922) in the initial screen, S. aureus ATCC 27660, S. epidermis ATCC 35547, S. haemolyticus ATCC 29970, S. oralis ATCC 9811, S. pyogenes ATCC 49399, B. cereus ATCC 13061, B. licheniformis ATCC 12759, and E. faecalis ATCC 29212 were purchased from the American Type Culture Collection (Manassas, Va., USA). S. aureus strains NRS100, NRS119, NRS120, VRS1, and VRS2 were obtained from the Network on Antimicrobial Resistance in Staphylococcus aureus (Chantilly, Va., USA). E. faecalis strains 201 and 99, and E. faecium strains 119-39A and 106 were collected from Wayne State University School of Medicine.
(§2) The procedure for MIC determination was the same as previously reported (Tran et al., Am. J. Clin. Dermatol. 2015; doi 10.1007/S40257-015-0125-9).

S. aureus NRS100 (COL) = test: MIC determination; assay type: cell-based; conditions: Staphylococcus aureus
Description: as §1, §2

S. aureus VRS1 = test: MIC determination; assay type: cell-based; conditions: Staphylococcus aureus
Description: as §1, §2

S. epidermis ATCC 35547 = test: MIC determination; assay type: cell-based
Description: as §1, §2

[1] = tested on: S. haemolyticus ATCC 29970; test: MIC determination; assay type: cell-based; conditions: Staphylococcus haemolyticus, ATCC29970
Description: as §1, §2

S. oralis ATCC 9811 = test: MIC determination; assay type: cell-based; conditions: Streptococcus oralis, ATCC9811
Description: as §1, §2

S. pyogenes ATCC 49399 = test: MIC determination; assay type: cell-based; conditions: Streptococcus pyogenes, ATCC49399
Description: as §1, §2

E. faecium NCTC 7171 = test: MIC determination; assay type: cell-based, Enterococcus faecium; conditions: Enterococcus faecium
[2] = Fast pharmacokinetic (PK) studies; assay type: in vivo, mouse
Description: To rapidly ascertain the PK properties of the compounds, fast PK studies were conducted. These studies involve administration of the compounds using a limited number of animals (n=2 mice per time point) for a few time points. This allows us to rapidly compare the preliminary PK properties of the compounds, so that full PK studies are conducted only with the most promising compound(s). […] The alkyne substituted pyrazole 66b had the lowest clearance and the highest systemic exposure, as measured by area under the curve (AUC, Table 2).
Female ICR mice (6-8 weeks old, ˜20-g body weight) were used for the PK and peritonitis studies. Animals were purchased from Harlan Laboratories, Inc. (Indianapolis, Ind., USA) and given Teklad 2019 Extruded Rodent Diet and water ad libitum. Mice were maintained in polycarbonate shoebox cages with ¼″ corncob (The Andersons Inc., Maumee, Ohio) and Alpha-dri (Sheperd Specialty Papers, Inc., Richland, Mich.) bedding under 12-h light/12-h dark cycle at 72±2° F.
For fast PK studies, the compounds were dissolved in 10% DMSO/25% Tween-80/65% water at a concentration of 5 mg/mL. The dosing formulations were sterilized by filtration through a 0.2 μm, 13 mm diameter PTFE membrane attached to an Acrodisc syringe filter (Pall Life Sciences, Ann Arbor, Mich., USA). […] Terminal blood was collected at 5 min, 40 min, 2 h, 4 h, and 8 h; blood was centrifuged at 1200 g for 10 min to harvest plasma.
Plasma ([…], aliquot) was mixed with 100 μL of acetonitrile containing internal standard (final concentration 8 μg/mL). After centrifugation at 10000 g for 10 min, the supernatant was analyzed by ultraperformance liquid chromatography (UPLC) with UV detection at 285 nm. A Waters Acquity UPLC System (Waters Corporation, Milford, Mass., USA), consisting of a binary pump, an autosampler, a column heater, and a photodiode array detector was used. An Acquity UPLC C18 1.7 μm, 2.1 mm i.d.×50 mm column was used. Elution was at 0.5 mL/min with 70% A/30% B for 2 min, followed by a 10-min linear gradient to 10% A/90% B, then 70% A/30% B for 2 min, where A=0.1% formic acid/water and B=0.1% formic acid/acetonitrile. Monitoring was by UV detection at 285 nm. Calibration curves for each compound were prepared in control plasma containing internal standard. The concentrations in the PK samples were obtained using peak area ratio to the internal standard and the calibration curve regression analysis parameters. The methods were linear from 0.01 to 100 μg/mL; coefficients of determination R^2 range from 0.98 to 0.99.
The area under the curve (AUC), clearance (CL), volume of distribution (Vd), and terminal half-life were calculated using Phoenix WinNonlin 6.3 (Certara LP, St Louis, Mo., USA) noncompartmental analysis using uniform weighing. Half-lives were estimated from the linear portion of the initial or terminal phase of the concentration-time data by linear regression, where the slope of the line was the rate constant k and t1/2=ln 2/k.

HepG2 cells = test: XTT cytotoxicity assay; assay type: cell-based; conditions: for IC50: Homo sapiens
Description: We used the XTT assay with HepG2 cells to evaluate the in vitro toxicity of compounds 60b, 60c, 65b, 66b, 75b and 76b (Table 2). […] Compared to the lead 1, indole 75b was 5-fold less toxic.
The XTT cytotoxicity assay was performed in triplicated using HepG2 cells (ATCC HB-8065), as previously described (Tran et al., Am. J. Clin. Dermatol. 2015; doi 10.1007/S40257-015-0125-9). The IC50 values were calculated with GraphPad Prism 5 (GraphPad Software, Inc., San Diego, Calif., USA).

[3] = mecA positive, resistant to methicillin, oxacillin, tetracycline, Tables 1 and 5, read-out: MIC
[4] = vancomycin-resistant MRSA (vanA) isolate from Michigan, Tables 1 and 5, read-out: MIC
[5] = NCTC7171, Table 1, read-out: MIC
[6] = NCTC7171, Table 3.1, compounds of Schemes 2-4, read-out: E. faecium NCTC 7171 MIC
[7] = HepG2 cells, cytotoxicity, read-out: XTT HepG2 IC50
[8] = single iv dose at 20 mg/kg, mice

Compound | MIC (B. cereus ATCC 13061; Tables 1 and 5, read-out: MIC) [µg/mL] | MIC (S. aureus NRS100 (COL); [3]) [µg/mL] | MIC (S. aureus VRS1; [4]) [µg/mL] | MIC (S. epidermis ATCC 35547; Tables 1 and 5, read-out: MIC) [µg/mL] | MIC ([1]; Tables 1 and 5, read-out: MIC) [µg/mL] | MIC (S. oralis ATCC 9811; Table 1, read-out: MIC) [µg/mL] | MIC (S. pyogenes ATCC 49399; Table 1, read-out: MIC) [µg/mL] | MIC (E. faecium NCTC 7171; [5]) [µg/mL] | MIC (E. faecium NCTC 7171; [6]) [µg/mL] | IC50 (HepG2 cells; [7]) [µg/mL] | AUC0-8 h [2, 8] [µg·min/mL] | CL [2, 8] [mL/min/kg] | further results
Oc1ccc(-c2nc(-c3ccc(Oc4ccc(C(F)(F)F)cc4)cc3)no2)cc1 [Compound 1] | 2 (≈ 5.02 µM) | 2 (≈ 5.02 µM) | 2 (≈ 5.02 µM) | 2 (≈ 5.02 µM) | 2 (≈ 5.02 µM) | 32 (≈ 80.3 µM) | 32 (≈ 80.3 µM) | 2 (≈ 5.02 µM) | 1 (≈ 2.51 µM) | 25.8 (≈ 64.8 µM) |  |  | AUC(0-t) ([2]; ICR, mouse, plasma, compound 1 at 50 mg/kg iv, read-out: AUC0-8 h): 44200 ng·h/mL; CL ([2]; compound 1 at 50 mg/kg iv): 18.9^c mL/min/kg
FC(F)(F)c1ccc(Oc2ccc(-c3noc(-c4n[nH]cc4Cl)n3)cc2)cc1 [Compound 60b, 5-(4-Chloro-1H-pyrazol-3-yl)-3-(4-(4-(trifluoromethyl)phenoxy)phenyl)-1,2,4-oxadiazole] | > 128 | > 128 | 1 to 2 (≈ 2.46 to 4.92 µM) | > 128 | > 128 | > 128 | > 128 | 16 (≈ 39.3 µM) | 2 (≈ 4.92 µM) | 24.1 ± 1.6 (≈ 59.3 µM) | 910 | 22.0 | 
Fc1ccc(Oc2ccc(-c3noc(-c4n[nH]cc4Cl)n3)cc2)cc1 [Compound 60c, 5-(4-Chloro-1H-pyrazol-3-yl)-3-(4-(4-fluorophenoxy)phenyl)-1,2,4-oxadiazole] | > 128 | > 128 | 1 (≈ 2.8 µM) | > 128 | > 128 | > 128 | > 128 | 32 (≈ 89.7 µM) | 8 (≈ 22.4 µM) | 18.2 ± 2.9 (≈ 51 µM) | 446 | 44.9 | 
CC(C)Nc1c[nH]nc1-c1nc(-c2ccc(Oc3ccc(C(F)(F)F)cc3)cc2)no1 [Compound 65b, N-Isopropyl-3-(3-(4-(4-(trifluoromethyl)phenoxy)phenyl)-1,2,4-oxadiazol-5-yl)-1H-pyrazol-4-amine] |  |  |  |  |  |  |  |  |  |  | 1313 | 15.2 | MIC (B. cereus ATCC 13061): > 128 µg/mL; MIC (S. aureus NRS100 (COL)): > 128 µg/mL; MIC (S. aureus VRS1; MRSA): 1 µg/mL (≈ 2.33 µM); MIC (S. epidermis ATCC 35547): > 128 µg/mL; MIC [1]: > 128 µg/mL; MIC (S. oralis ATCC 9811): > 128 µg/mL; MIC (S. pyogenes ATCC 49399): > 128 µg/mL; MIC (E. faecium NCTC 7171; NCTC7171): 32 µg/mL (≈ 74.5 µM); MIC (E. faecium NCTC 7171; NCTC7171, read-out: E. faecium NCTC 7171 MIC): > 128 µg/mL; IC50 (HepG2 cells; HepG2, read-out: XTT HepG2 IC50): 3.9 ± 0.8 µg/mL (≈ 9.08 µM)
C#Cc1c[nH]nc1-c1nc(-c2ccc(Oc3ccc(C(F)(F)F)cc3)cc2)no1 [Compound 66b, 5-(4-Ethynyl-1H-pyrazol-3-yl)-3-(4-(4-(trifluoromethyl)phenoxy)phenyl)-1,2,4-oxadiazole] | > 128 | > 128 | 1 (≈ 2.52 µM) | > 128 | > 128 | > 128 | > 128 |  | > 128 | 9.8 ± 4 (≈ 24.7 µM) | 8261 | 2.4 | 
FC(F)(F)c1ccc(Oc2ccc(-c3noc(-c4ccc5[nH]ccc5c4)n3)cc2)cc1 [Compound 75b, 5-(1H-Indol-5-yl)-3-(4-(4-(trifluoromethyl)phenoxy)phenyl)-1,2,4-oxadiazole] | 16 (≈ 38 µM) |  | 1 (≈ 2.37 µM) |  | 8 (≈ 19 µM) | 128 (≈ 304 µM) | 64 (≈ 152 µM) | 2 to 4 (≈ 4.75 to 9.49 µM) | 2 (≈ 4.75 µM) | 75.7 ± 7.3 (≈ 180 µM) | 1283 | 15.2 | fold less toxic than the lead 1 (HepG2 cells; XTT assay, HepG2 cells): 5 fold
FC(F)(F)c1ccc(Oc2ccc(-c3noc(-c4c[nH]cn4)n3)cc2)cc1 [Compound 76b, 5-(1H-Imidazol-4-yl)-3-(4-(4-(trifluoromethyl)phenoxy)phenyl)-1,2,4-oxadiazole] |  | 32 (≈ 86 µM) | 1 (≈ 2.69 µM) | 32 (≈ 86 µM) | 16 (≈ 43 µM) | > 128 | 128 (≈ 344 µM) | 8 to 16 (≈ 21.5 to 43 µM) | 4 (≈ 10.7 µM) | 31.5 ± 0.5 (≈ 84.6 µM) | 2054 | 9.7 | 

Source: US10662164B2, “Non-beta lactam antibiotics” (University of Notre Dame du Lac, priority 2014, dated 2020)
